Residues, ends and D or L forms follow the SMILES beside them. *: point of attachment. Cbz = O=C(OCc1ccccc1)*
Assays:
[1] = system: WI-38 IR-induced senescent cells (IR-SCs); assay: Cell viability assay (flow cytometry, PI); format: cell-based, human; settings: for EC50: Homo sapiens, WI-38 IR-SCs, 72 h, Table 1 screen of curcumin analogs; for selective toxicity against IR-SCs versus NCs (viability): WI-38, 72 h
Description: (§1) Human WI-38 fibroblasts (WI-38, Cat. No. CCL-75), human IMR-90 fibroblasts (IMR-90, Cat. No. CCL-186), human umbilical vein endothelial cells (HUVEC, Cat. No. CRL-1730), human renal epithelial cells (HREC, Cat. No. PCS-400-012) and human pre-adipocytes (Cat. No. PCS-210-010) were newly purchased from the American Type Culture Collection (ATCC, Manassas, VA, USA). WI-38 and IMR-90 cells were cultured in complete Dulbecco’s modified Eagle medium (DMEM, Cat. No. 12430054, Thermo Fisher Scientific, Waltham, MA, USA) supplemented with 10% heat-inactivated fetal bovine serum (FBS, Cat. No. S11150H, Atlanta Biologicals, Flowery Branch, GA, USA), 100 U/mL penicillin and 100 µg/mL streptomycin (Pen Strep, Cat. No. 15140122, Thermo Fisher Scientific, Waltham, MA, USA) in a humidified incubator at 37°C and 5% CO2. HUVEC were cultured in EGM-2 BulletKit (Cat. No. CC-3162, Lonza, Basel, Switzerland) containing basal medium supplemented with growth factors, cytokines and other supplements according to the manufacturer’s protocol. HREC were cultured in renal epithelial cell basal medium (Cat. No. PCS-400-030, ATCC, Manassas, VA, USA) supplemented with renal epithelial cell growth kit (Cat. No. PCS400040, ATCC, Manassas, VA, USA). Human pre-adipocytes were cultured in fibroblast basal medium (Cat. No. PCS-201-030, ATCC, Manassas, VA, USA) supplemented with fibroblast growth kit-low serum (Cat. No. PCS201041, ATCC, Manassas, VA, USA). EF24 (Cat. No. E8409) and HO-3867 (Cat. No. S7501) were purchased from Sigma-Aldrich (St. Louis, MO, USA) and Selleckchem (Houston, TX, USA), respectively. DIMC (Cat. No. 10009986) and 2-HBA (Cat. No. 11879) were both purchased from Cayman Chemical (Ann Arbor, MI, USA).
(§2) Three different methods were used for the induction of SCs, including replicative exhaustion, ionizing radiation and ectopic Ras expression as previously described. Briefly, low-passage WI-38 cells (< 25 passages), IMR-90 cells (< 25 passages), HUVEC (< 10 passages), HREC (< 10 passages) and pre-adipocytes (< 4 passages) were used as NCs or for the induction of senescence. To induce replicative senescence (Rep-SCs), WI-38 and IMR-90 fibroblasts, HUVEC, HREC and pre-adipocytes were subcultured until they stopped to divide and became permanently growth arrested senescence after 38 passages (WI-38), 38 passages (IMR-90), 22 passages (HUVEC), 30 passages (HREC) and 10 passages (pre-adipocytes), respectively. To induce SCs by ionizing radiation (IR-SCs) and ectopic expression of Ras (Ras-SCs), WI-38 NCs were treated as previously described.
(§3) Number of viable cells were quantified using flow cytometry as previously described with slight modifications. Specifically, NCs and SCs were incubated with vehicle (0.1% DMSO) or a test compound at indicated concentrations for 72 h. Following dissociation with 0.25% Trypsin-EDTA (Cat. No. 25200056, Thermo Fisher Scientific, Waltham, MA, USA) at 37°C for 5 min, the cells were harvested in 100 µl pre-cooled phosphate buffered saline (PBS, Cat. No. 20012027, Thermo Fisher Scientific, Waltham, MA, USA) containing 2% FBS and 100 ng/mL propidium iodide (PI, P4170, Sigma-Aldrich, St. Louis, MO, USA) and analyzed using flow cytometry (LSR II, BD Biosciences, San Jose, CA, USA). Percentage of viable cells were determined by counting the number of PI negative cells (viable cells) and then calculated as a ratio of control cells treated with vehicle. In addition, dose-response curves were generated for each compound, and the concentration for 50% of maximal effect (EC50 values) was calculated using GraphPad Prism 6.

[2] = system: WI-38 non-senescent cells (NCs); assay: Cell viability assay (flow cytometry, PI); format: cell-based, human; settings: Homo sapiens; WI-38 NCs, 72 h, Table 1 screen of curcumin analogs
Description: as §1, §2, §3

[3] = parameters: method as in PMID 20211249; settings: cited from earlier work
[4] = system: WI-38 IR-SCs; assay: Combination treatment cell viability and coefficient of drug interaction (CDI); format: cell-based, human; settings: 72 h
Description: as §3
The data were analyzed by analysis of variance (ANOVA) with GraphPad Prism 6 (GraphPad Software, La Jolla, CA, USA). […] To detect the synergistic senolytic activities of EF24 and ABT263, CDI was calculated as previously described.

[5] = system: platelets; parameters: method as in PMID 22496272; settings: cited from earlier work
[6] = system: Bcl-2 family proteins (Bcl-xl, Mcl-1, Bcl-2); assay: Proteasome inhibition experiment (MG132 pretreatment, western blots); format: cell-based, human; settings: 1 µM MG132 1 h prior to EF24 for 72 h
Description: After treatment with vehicle or EF24 at 0.5, 1 and 2 µM for 72 h, WI-38 NCs or IR-SCs were harvested in 1.5mL microcentrifuge tubes, and lysed in RIPA buffer with EDTA and EGTA (Cat. No. BP-115DG, Boston BioProducts, Ashland, MA, USA) supplemented with 1% protease inhibitor cocktail (Cat. No. P8340, Sigma-Aldrich, St. Louis, MO, USA) and 1% phosphatase inhibitor cocktail (Cat. No. P0044, Sigma-Aldrich, St. Louis, MO, USA). An equal amount of protein (30 µg/lane) from each cell extract was resolved on a precast gel (Mini-PROTEAN TGX™, Cat. No. 456-1094, Bio-Rad, Hercules, CA, USA). Proteins were blotted to a precut 0.2 µm PVDF membrane (Invitrolon™, Cat. No. LC2002, Life Technologies, Carlsbad, CA, USA) by electrophoresis. The membranes were blocked with 1X TBS-Tween (TBST, Cat. No. J77500, Affymetrix, Santan Clara, CA, USA) containing 5% non-fat dry milk (Cat. No. sc-2324, Santa Cruz Biotechnology, Dallas, TX, USA), and subsequently probed with primary antibodies at a predetermined optimal concentration overnight at 4°C. The primary antibodies including Bcl-xl (Cat. No. 2762), Mcl-1 (Cat. No. 5453), and Bcl-2 (Cat. No. 2872) and β-actin (Cat. No. 4970) were purchased from Cell Signaling Technology (Danvers, MA, USA). […] The blotting membranes were recorded using autoradiography (SRX-101, Konica, Shinjuku, Tokyo, Japan). […]

[7] = system: WI-38 IR-SCs; assay: Apoptosis analysis (Annexin-V/PI flow cytometry); format: cell-based, human; settings: 10 µM QVD 4 h prior to 2 µM EF24 for 72 h
Description: WI-38 NCs and SCs were treated with vehicle or 10 µM Q-VD-OPh (QVD, Cat. No. S7311, Selleckchem, Houston, TX, USA) for 4 h prior to the addition of vehicle or 2 µM EF24 for 72 h. The suspending cells were first harvested from the culture and then pooled with the adherent cells detached by 0.25% Trypsin-EDTA at 37°C for 5 min in 12 × 75 mm polystyrene round-bottom tubes (Cat. No. 352058, Falcon, Corning, NY, USA) containing complete DMEM medium. The cells were stained with Alexa Fluor 647-Annexin V (1: 50, Cat. No. 640912, BioLegend, San Diego, CA, USA) and PI (10 µg/mL, Cat. No. 421301, BioLegend, San Diego, CA, USA) at room temperature for 30 min. The stained cells were analyzed using a BD LSR II flow cytometer.

[8] = system: senescent human preadipocytes; parameters: method as in PMID 28273655; settings: cited from earlier work

Structure (SMILES)	EC50 [1]	selective toxicity against IR-SCs versus NCs (viability) [1]	EC50 [2]	also measured
O=C(C=Cc1ccccc1O)C=Cc1ccccc1O [2-HBA, Bis(2-hydroxybenzylidene)acetone]	3.85 µM	lesser toxicities to NCs	9.5 µM	–
C=CCNC1=C2C[C@@H](C)C[C@H](OC)[C@H](O)[C@@H](C)/C=C(\C)[C@H](OC(N)=O)[C@@H](OC)/C=C\C=C(/C)C(=O)NC(=CC1=O)C2=O [17-AAG]	–	–	–	hepatotoxicity [3]: unacceptable hepatotoxicity
CC1(C)CCC(c2ccc(Cl)cc2)=C(CN2CCN(c3ccc(C(=O)NS(=O)(=O)c4ccc(N[C@H](CCN5CCOCC5)CSc5ccccc5)c(S(=O)(=O)C(F)(F)F)c4)cc3)CC2)C1 [ABT263]	–	–	–	cell viability of IR-SCs, agent alone [4]: dose-dependently reduce; on-target toxicity to platelets [5]: dose-limiting thrombocytopenia
COc1ccc(/C=C/C(=O)CC(=O)/C=C/c2ccc(OC)c(OC)c2)cc1OC [DIMC, dimethoxycurcumin]	15.2 µM	minimal selective toxicity	23.8 µM	–
CC1(C)C=C(CN2C/C(=C\c3ccc(F)cc3)C(=O)/C(=C/c3ccc(F)cc3)C2)C(C)(C)N1O [HO-3867]	3.85 µM	lesser toxicities to NCs	8.3 µM	–
CC(C)C[C@@H](C=O)NC(=O)[C@H](CC(C)C)NC(=O)[C@H](CC(C)C)NC(=O)OCc1ccccc1 [MG132] (Cbz-Leu-Leu-Leu-aldehyde)	–	–	–	effect of MG132 pretreatment on downregulation of Bcl-2 family proteins by EF24 in SCs ([6]; WI-38 IR-SCs): abrogated; effect of MG132 pretreatment on expression of Bcl-2 family proteins in NCs ([6]; WI-38 NCs): no significant effect
CC(C)[C@H](NC(=O)c1ccc2ccccc2n1)C(=O)N[C@@H](CC(=O)O)C(=O)COc1c(F)cccc1F [QVD]	–	–	–	effect of QVD pretreatment on EF24 induction of SCs apoptosis [7]: completely blocked
O=c1c(O)c(-c2ccc(O)c(O)c2)oc2cc(O)ccc12 [fisetin]	–	–	–	senolytic activity against senescent human preadipocytes [8]: lacks senolytic activity
COC1=C2C[C@@H](C)C[C@H](OC)[C@H](O)[C@@H](C)/C=C(\C)[C@H](OC(N)=O)[C@@H](OC)/C=C\C=C(/C)C(=O)NC(=CC1=O)C2=O [geldanamycin]	–	–	–	hepatotoxicity [3]: unacceptable hepatotoxicity

Source: paper PMC6366974, “The curcumin analog EF24 is a novel senolytic agent” (Aging (Albany NY), 2019)
